Bounds are passed on as bounds.

Data set [1] deals with Canidae. The following applies: chronic; duration: 1 years; oral; Dog Other; organ weight.
Data set [2] has as its system Bibionidae. The following applies: chronic/long-term; duration: 28 days; seedling emergence.
Data set [3] deals with Rattus norvegicus.
Data set [4] deals with Oryctolagus sp. Particulars: developmental; development.
The test system of data set [5] is Daphnia magna. Particulars: chronic/long-term; duration: 21 days; reproduction.
The subject of data set [6] is Mus musculus. Particulars: chronic; duration: 18 months; mortality.
For data set [7], the system named is Apis mellifera. The following applies: acute, mortality.
The subject of data set [8] is Folsomia candida. The following applies: chronic/long-term; mortality.
Data set [9] relates to Pontoscolex corethrurus. The following applies: chronic/long-term; growth.
Data set [10] deals with Anas platyrhynchos.

As to `CC(COc1ccc(Oc2ccccc2)cc1)Oc1ccccn1` (centres undefined) [Pyriproxyfen], the NOAEL in [1] was found to be 10 mg/kg-day; in [3] (reproduction developmental, organ weight), 13.3 mg/kg-day; in data set [4], 100 mg/kg-day. Moreover, the NOEC in data set [2] stood at 3.1 µg/L; in data set [5], 0.015 µg/L; in [8], 12.5 mg/kg; in [9], 50 mg/kg; in data set [10] (chronic/long-term) it was 70.2 mg/kg-day. Further, the LD50 in data set [3] (acute, oral, mortality) was more than 5000 mg/kg-day; in data set [7] (dermal) it was more than 100 µg/piece; in [7] (oral, unspecified) it was 74 µg/piece; in data set [10] (acute, oral, unspecified, mortality) it was more than 1910 mg/kg-day. The compound further registered an LOAEL in data set [6] of 16.4 mg/kg-day. Also, in data set [10] (short-term, oral, feed, mortality), the LC50 was more than 1260 mg/kg-day.

Broadly, the NOAEL is the highest dose or exposure tested at which no adverse effect was seen. Broadly, the LOAEL is the lowest dose or exposure tested at which an adverse effect was seen.

The record behind these values is EPA's ToxValDB 9.5 (doi:10.2903/j.efsa.2019.5732).
